The text below walks through data of patent US10435369B2, “Tricyclic sulfones as ROR gamma modulators” (BRISTOL-MYERS SQUIBB COMPANY, priority 2016, dated 2019).

The target in one experiment is RORγ receptor (Homo sapiens, UniProt P51449). The experiment in a line: RORγ Gal4 reporter assay (Gal4-luciferase, inverse agonist activity). In kind it is cell-based.
Chain of RORγ receptor (P51449 269-508): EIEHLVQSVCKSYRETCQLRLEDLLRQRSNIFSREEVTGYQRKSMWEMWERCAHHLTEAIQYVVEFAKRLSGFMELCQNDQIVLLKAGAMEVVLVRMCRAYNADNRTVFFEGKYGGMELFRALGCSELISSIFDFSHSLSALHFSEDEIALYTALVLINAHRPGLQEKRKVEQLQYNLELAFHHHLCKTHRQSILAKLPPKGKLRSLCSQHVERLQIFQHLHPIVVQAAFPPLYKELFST
Conditions: not given
How it is done:
General RORγ Gal4 Reporter Assay
IC50 values were determined.
The molecule `CNC(=O)CN[C@@H]1CC[C@@]2(S(=O)(=O)c3ccc(F)cc3)c3ccc(C(F)(C(F)(F)F)C(F)(F)F)cc3CC[C@@H]12` [Example 208, 2-(((3R,3 aS,9bS)-9b-((4-fluorophenyl)sulfonyl)-7-(perfluoropropan-2-yl)-2,3,3a,4,5,9b-hexahydro-1H-cyclopenta[a]naphthalen-3-yl)amino)-N-methylacetamide] registered a half-maximal inhibitory concentration (IC50) of 16 nM.

Staying with this experiment, now noted: Jurkat cells stably over-expressing hRORγ; Gal4-luciferase reporter; overnight incubation; read-out: RORγ Gal4, IC50.
As to `O=C(N[C@@H]1CC[C@@]2(S(=O)(=O)c3ccc(F)cc3)c3ccc(C(F)(C(F)(F)F)C(F)(F)F)cc3CC[C@@H]12)C1(O)CCS(=O)(=O)CC1` [Example 123, N-((3R,3aS,9bS)-9b-((4-fluorophenyl)sulfonyl)-7-(perfluoropropan-2-yl)-2,3,3a,4,5,9b-hexahydro-1H-cyclopenta[a]naphthalen-3-yl)-4-hydroxytetrahydro-2H-thiopyran-4-carboxamide 1,1-dioxide], the IC50 worked out at 2 nM.

For the molecule `O=C(NC12CCC(C(=O)O)(CC1)CC2)[C@@H]1CC[C@@]2(S(=O)(=O)c3ccc(F)cc3)c3ccc(C(F)(C(F)(F)F)C(F)(F)F)cc3CC[C@@H]12` [Example 103], the 50% inhibitory concentration (IC50) was determined as 31 nM.

Take `O=C1CC2(CCN(C(=O)[C@@H]3CC[C@@]4(S(=O)(=O)c5ccc(F)cc5)c5ccc(C(F)(C(F)(F)F)C(F)(F)F)cc5CC[C@@H]34)CC2)CN1` [Example 83]: the IC50 was determined as 9 nM.

With `CS(=O)(=O)N1CCC(CNC(=O)[C@@H]2CC[C@@]3(S(=O)(=O)c4ccc(F)cc4)c4ccc(C(F)(C(F)(F)F)C(F)(F)F)cc4CC[C@@H]23)C1` (some centres unmarked) [Example 277], the IC50 is 6 nM.

In the case of `O=C([C@@H]1CC[C@@]2(S(=O)(=O)c3ccc(F)cc3)c3ccc(C(F)(C(F)(F)F)C(F)(F)F)cc3CC[C@@H]12)N1CCC2(CCNC2=O)CC1` [Example 82], the IC50 worked out at 18 nM.

In the case of `CC(NC(=O)c1c[nH]cn1)[C@@H]1CC[C@@]2(S(=O)(=O)c3ccc(F)cc3)c3ccc(C(F)(C(F)(F)F)C(F)(F)F)cc3CC[C@@H]12` (some centres unmarked) [Example 257], the IC50 is 27 nM.

As to `O=C(N[C@@H]1CC[C@@]2(S(=O)(=O)c3ccc(F)cc3)c3ccc(C(F)(C(F)(F)F)C(F)(F)F)cc3CC[C@@H]12)C1(F)CCS(=O)(=O)CC1` [Example 298, 4-fluoro-N-((3R,3aS,9bS)-9b-((4-fluorophenyl)sulfonyl)-7-(perfluoropropan-2-yl)-2,3,3a,4,5,9b-hexahydro-1H-cyclopenta[a]naphthalen-3-yl)tetrahydro-2H-thiopyran-4-carboxamide 1,1-dioxide], the IC50 amounted to 7 nM.

`CC(C)(O)CC(=O)N[C@@H]1CC[C@@]2(S(=O)(=O)c3ccc(F)cc3)c3ccc(C(F)(C(F)(F)F)C(F)(F)F)cc3NC[C@@H]12` [Example 221]: the IC50 was 45 nM.

Consider `O=C(O)[C@H]1CC[C@](O)(C(=O)N[C@@H]2CC[C@@]3(S(=O)(=O)c4ccc(F)cc4)c4ccc(C(F)(C(F)(F)F)C(F)(F)F)cc4CC[C@@H]23)CC1` [Example 191, (1s,4s)-4-(((3R,3aS,9bS)-9b-((4-fluorophenyl)sulfonyl)-7-(perfluoropropan-2-yl)-2,3,3a,4,5,9b-hexahydro-1H-cyclopenta[a]naphthalen-3-yl)carbamoyl)-4-hydroxycyclohexane-1-carboxylic acid], for which the IC50 is 54 nM.

Consider `O=C(O)C1CCN(C(=O)[C@@H]2CC[C@@]3(S(=O)(=O)c4ccc(F)cc4)c4ccc(C(F)(C(F)(F)F)C(F)(F)F)cc4CC[C@@H]23)C1` (some centres unmarked) [Example 91], for which the IC50 amounted to 40 nM.

Regarding `NS(=O)(=O)N[C@H]1C[C@@H](NC(=O)[C@@H]2CC[C@@]3(S(=O)(=O)c4ccc(F)cc4)c4ccc(C(F)(C(F)(F)F)C(F)(F)F)cc4CC[C@@H]23)C1` [Example 281], the IC50 is 58 nM.

As to `Cc1ncn(C)c1C(=O)N[C@@H]1CC[C@@]2(S(=O)(=O)c3ccc(F)cc3)c3ccc(C(F)(C(F)(F)F)C(F)(F)F)cc3CC[C@@H]12` [Example 146], the IC50 amounted to 13 nM.

Consider `CC(NC(=O)[C@H](C)N)[C@@H]1CC[C@@]2(S(=O)(=O)c3ccc(F)cc3)c3ccc(C(F)(C(F)(F)F)C(F)(F)F)cc3CC[C@@H]12` (some centres unmarked) [Example 271], for which the IC50 was 45 nM.
